In ChEMBL document CHEMBL3351514, “Design and synthesis of new of 3-(benzo[d]isoxazol-3-yl)-1-substituted pyrrolidine-2, 5-dione derivatives as anticonvulsants” (Eur J Med Chem, 2014):
Active and inactive are the calls of the source. The rule behind the calls is not given here.

Experiments:
[1] = system: Mus musculus; assay: Anticonvulsant activity in ip dosed albino Swiss mouse assessed as protection against maximal electroshock-induced seizures at 0.5 hr; type: functional
[2] = system: Mus musculus; assay: Anticonvulsant activity in ip dosed albino Swiss mouse assessed as assessed as protection against subcutaneous pentylenetetrazol-induced seizures at 0.5 hr; type: functional
[3] = system: Mus musculus; assay: Anticonvulsant activity in albino Swiss mouse assessed as assessed as protection against subcutaneous pentylenetetrazol-induced seizures at 300 mg/kg, ip at 4 hrs; type: functional, organism-based; design: dose 300 mg/kg
[4] = system: Mus musculus; assay: Anticonvulsant activity in albino Swiss mouse assessed as protection against maximal electroshock-induced seizures at 300 mg/kg, ip at 4 hrs; type: functional, organism-based; design: dose 300 mg/kg
[5] = system: Mus musculus; assay: Anticonvulsant activity in albino Swiss mouse assessed as protection against maximal electroshock-induced seizures at 300 mg/kg, ip at 0.5 hr; type: functional, organism-based; design: dose 300 mg/kg
[6] = system: Rattus norvegicus; assay: Anticonvulsant activity in albino Wistar rat assessed as protection against subcutaneous pentylenetetrazol-induced seizures at 50 mg/kg, po at 0.5 hr; type: functional
[7] = system: Rattus norvegicus; assay: Anticonvulsant activity in albino Wistar rat assessed as protection against subcutaneous pentylenetetrazol-induced seizures at 50 mg/kg, po at 1 hr; type: functional
[8] = Neurotoxicity in ip dosed albino Wistar rat at 0.5 hr by rotorod test; type: toxicity, organism-based; settings: in vivo
[9] = Neurotoxicity in ip dosed albino Wistar rat at 4 hrs by rotorod test; type: toxicity, organism-based; settings: in vivo
[10] = system: Mus musculus; assay: Anticonvulsant activity in ip dosed albino Swiss mouse assessed as protection against maximal electroshock-induced seizures at 4 hrs; type: functional
[11] = system: Rattus norvegicus; assay: Anticonvulsant activity in albino Wistar rat assessed as protection against maximal electroshock-induced seizures at 30 mg/kg, po at 2 hrs; type: functional
[12] = system: Rattus norvegicus; assay: Anticonvulsant activity in albino Wistar rat assessed as protection against subcutaneous pentylenetetrazol-induced seizures at 50 mg/kg, po at 2 hrs; type: functional
[13] = system: Rattus norvegicus; assay: Anticonvulsant activity in po dosed albino Wistar rat assessed as protection against maximal electroshock-induced seizures at 2 hrs; type: functional
[14] = Protective index, ratio of TD50 for neurotoxicity in po dosed albino Wistar rat to ED50 for anticonvulsant activity in po dosed albino Wistar rat assessed as protection against maximal electroshock-induced seizures at 2 hrs; type: toxicity, organism-based; settings: in vivo, read-out: Ratio TD50/ED50
[15] = Neurotoxicity in po dosed albino Wistar rat at 2 hrs by rotorod test; type: toxicity, organism-based; settings: in vivo
[16] = system: Rattus norvegicus; assay: Anticonvulsant activity in albino Wistar rat assessed as protection against maximal electroshock-induced seizures at 30 mg/kg, po at 1 hr; type: functional
[17] = system: Rattus norvegicus; assay: Anticonvulsant activity in albino Wistar rat assessed as protection against maximal electroshock-induced seizures at 30 mg/kg, po at 0.5 hr; type: functional
[18] = system: Rattus norvegicus; assay: Anticonvulsant activity in albino Wistar rat assessed as protection against maximal electroshock-induced seizures at 30 mg/kg, po at 0.25 hr; type: functional
[19] = system: Rattus norvegicus; assay: Anticonvulsant activity in albino Wistar rat assessed as protection against maximal electroshock-induced seizures at 30 mg/kg, po at 4 hrs; type: functional
[20] = in vivo; settings: Wistar, rat, po
Description: Protective index, ratio of TD50 for neurotoxicity in po dosed albino Wistar rat to ED50 for anticonvulsant activity in po dosed albino Wistar rat assessed as protection against maximal electroshock-induced seizures at 1 hr

[21] = system: Rattus norvegicus; assay: Anticonvulsant activity in po dosed albino Wistar rat assessed as protection against maximal electroshock-induced seizures at 1 hr; type: functional
[22] = system: Mus musculus; assay: Anticonvulsant activity in albino Swiss mouse assessed as assessed as protection against subcutaneous pentylenetetrazol-induced seizures at 300 mg/kg, ip at 0.5 hr; type: functional, organism-based; design: dose 300 mg/kg
[23] = Neurotoxicity in po dosed albino Wistar rat at 1 hr by rotorod test; type: toxicity, organism-based; settings: in vivo
[24] = Neurotoxicity in po dosed albino Wistar rat at 4 hrs by rotorod test; type: toxicity, organism-based; settings: in vivo
[25] = system: Rattus norvegicus; assay: Anticonvulsant activity in po dosed albino Wistar rat assessed as protection against subcutaneous pentylenetetrazol-induced seizures at 4 hrs; type: functional
[26] = Protective index, ratio of TD50 for neurotoxicity in po dosed albino Wistar rat to ED50 for anticonvulsant activity in po dosed albino Wistar rat assessed as protection against subcutaneous pentylenetetrazol-induced seizures at 4 hrs; type: toxicity, organism-based; settings: in vivo, read-out: Ratio TD50/ED50
[27] = system: Rattus norvegicus; assay: Anticonvulsant activity in albino Wistar rat assessed as protection against subcutaneous pentylenetetrazol-induced seizures at 50 mg/kg, po at 4 hrs; type: functional
[28] = system: Mus musculus; assay: Anticonvulsant activity in ip dosed albino Swiss mouse assessed as assessed as protection against subcutaneous pentylenetetrazol-induced seizures at 4 hrs; type: functional
[29] = system: Rattus norvegicus; assay: Neurotoxicity in albino Wistar rat at 300 mg/kg, ip at 4 hrs by rotorod test; type: toxicity, organism-based; design: dose 300 mg/kg, route intraperitoneal; settings: in vivo
[30] = in vivo; settings: Wistar, rat, po; remark: listed apart in the source
Description: Protective index, ratio of TD50 for neurotoxicity in po dosed albino Wistar rat to ED50 for anticonvulsant activity in po dosed albino Wistar rat assessed as protection against subcutaneous pentylenetetrazol-induced seizures at 2 hrs

[31] = system: Rattus norvegicus; assay: Neurotoxicity in albino Wistar rat at 300 mg/kg, ip at 0.5 hr by rotorod test; type: toxicity, organism-based; design: dose 300 mg/kg, route intraperitoneal; settings: in vivo
[32] = system: Rattus norvegicus; assay: Anticonvulsant activity in po dosed albino Wistar rat assessed as protection against subcutaneous pentylenetetrazol-induced seizures at 2 hrs; type: functional

In the case of `O=C1CC(c2noc3ccccc23)C(=O)N1c1ccncc1` (configuration not stated), the MED50 [1] is reported as 300 mg/kg, the MED50 [2] is reported as 300 mg/kg and the Activity [3] is reported as “inactive”. The Activity [4] was “inactive”.
With `CCCCN1C(=O)CC(c2noc3ccccc23)C1=O` (configuration not stated) the Activity [5] was “inactive”, the MED50 [2] was 100 mg/kg and the Activity [3] was “inactive”. For the same compound, the Activity [6] was 25%, the Activity [7] was 25% and the Activity [4] was “inactive”. It also gave an MTD at 0.5 h [8] of 100 mg/kg and an MTD at 4 h [9] of 100 mg/kg.
With `O=C1CC(c2noc3ccccc23)C(=O)N1c1ccc(F)cc1` (configuration not stated) the MED50 [10] was 30 mg/kg, the MED50 [1] was 30 mg/kg and the Activity [11] was 100%. It also gave an MED50 [2] of 100 mg/kg, an Activity [12] of 25% and an ED50 [13] of 14.9 mg/kg. The selectivity ratio at 2 h [14] was greater than 33.5, the Activity [3] was “inactive” and the Activity [6] was 25%. For the same compound, the TD50 at 2 h [15] was greater than 500 mg/kg, the Activity [7] was 25% and the Activity [16] was 75%. It also gave an Activity [17] of 50%, an Activity [18] of 25% and an MTD at 0.5 h [8] of 300 mg/kg. It also gave an MTD at 4 h [9] of 300 mg/kg and an Activity [19] of 100%.
With `O=C1NC(=O)C(c2ccccc2)(c2ccccc2)N1` [PHENYTOIN] the MED50 [1] was 30 mg/kg, the Activity [11] was 75% and the selectivity ratio at 1 h [20] was greater than 3.55. The Activity [3] was “inactive”, the ED50 [21] was 28.1 mg/kg and the Activity [22] was “inactive”. For the same compound, the Activity [4] was “inactive”, the Activity [16] was 75% and the Activity [17] was 100%. It also gave an Activity [18] of 25%, an MTD at 0.5 h [8] of 100 mg/kg and an MTD at 4 h [9] of 100 mg/kg. The Activity [19] was 75% and the TD50 at 1 h [23] was greater than 100 mg/kg.
For `O=C1CC(c2noc3ccccc23)C(=O)N1c1cccnc1` (configuration not stated), the Activity [5] was “inactive”, the Activity [3] was “inactive” and the Activity [22] was “inactive”. The Activity [4] was “inactive”.
Compound `COc1ccc(N2C(=O)CC(c3noc4ccccc34)C2=O)cc1` (configuration not stated) has an MED50 [10] of 300 mg/kg, an MED50 [1] of 100 mg/kg and an Activity [11] of 50%. For the same compound, the MED50 [2] was 100 mg/kg, the Activity [3] was “inactive” and the Activity [6] was 25%. It also gave an Activity [7] of 25%, an Activity [16] of 25% and an Activity [17] of 25%. It also gave an Activity [18] of 25%, an MTD at 0.5 h [8] of 100 mg/kg and an MTD at 4 h [9] of 300 mg/kg. It also gave an Activity [19] of 25%.
With `CCN1C(=O)CC(c2noc3ccccc23)C1=O` (configuration not stated) the MED50 [1] was 300 mg/kg, the MED50 [2] was 300 mg/kg and the Activity [3] was “inactive”. The Activity [4] was “inactive”.
With `CCCN1C(=O)CC(c2noc3ccccc23)C1=O` (configuration not stated) the MED50 [1] was 300 mg/kg, the MED50 [2] was 300 mg/kg and the Activity [3] was “inactive”. For the same compound, the Activity [4] was “inactive”.
`O=C1CC(c2noc3ccccc23)C(=O)N1C1CCCCC1` (configuration not stated) showed an MED50 [10] of 300 mg/kg, an MED50 [1] of 300 mg/kg and an MED50 [2] of 100 mg/kg. The Activity [12] was 25%, the Activity [6] was 25% and the TD50 at 4 h [24] was greater than 150 mg/kg. For the same compound, the ED50 [25] was 42.3 mg/kg, the selectivity ratio at 4 h [26] was greater than 3.54 and the Activity [7] was 25%. It also gave an Activity [27] of 25%, an MED50 [28] of 100 mg/kg and an MTD at 0.5 h [8] of 300 mg/kg. For the same compound, the MTD at 4 h [9] was 300 mg/kg.
In the case of `O=C1CC(c2noc3ccccc23)C(=O)N1c1ccccc1` (configuration not stated), the MED50 [10] is reported as 100 mg/kg, the MED50 [1] is reported as 30 mg/kg and the Activity [11] is reported as 50%. It also gave an MED50 [2] of 300 mg/kg, an Activity [16] of 50% and an MED50 [28] of 300 mg/kg. It also gave an Activity [17] of 25%, an Activity [18] of 25% and an MTD at 0.5 h [8] of 100 mg/kg. The MTD at 4 h [9] was 300 mg/kg and the Activity [19] was 50%.
With `O=C1CC(c2noc3ccccc23)C(=O)N1c1ccc(Cl)cc1` (configuration not stated) the MED50 [1] was 300 mg/kg, the MED50 [2] was 300 mg/kg and the Activity [3] was “inactive”. The Activity [4] was “inactive”.
For `CCC1(C)CC(=O)NC1=O` (configuration not stated) [ETHOSUXIMIDE], the Activity [29] was “Non-toxic”, the Activity [5] was “inactive” and the MED50 [2] was 100 mg/kg. It also gave an Activity [12] of 25%, an Activity [6] of 50% and a TD50 at 2 h [15] greater than 500 mg/kg. The selectivity ratio at 2 h [30] was greater than 3, the Activity [7] was 25% and the Activity [31] was “Non-toxic”. For the same compound, the Activity [4] was “inactive”, the MED50 [28] was 300 mg/kg and the ED50 [32] was 167 mg/kg.
In the case of `O=C1CC(c2noc3ccccc23)C(=O)N1c1ccccn1` (configuration not stated), the MED50 [1] is reported as 300 mg/kg, the MED50 [2] is reported as 300 mg/kg and the Activity [3] is reported as “inactive”. The Activity [4] was “inactive”.
